Experimental findings from US12011444B2, “N-substituted indole derivatives as PGE2 receptor modulators” (Idorsia Pharmaceuticals Ltd, priority 2015, dated 2024) are described below.

What is called IC50 is the concentration that gives 50% inhibition. A higher IC50 goes with weaker potency.

The target of one assay is PTGER2 (EP2) (Homo sapiens (Human), UniProt P43116). The assay is described as follows: hEP2 b-arrestin assay (PathHunter HEK 293 PTGER2 b-arrestin cells). The format is cell-based. The gist of the method: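 HEK293 cells expressing ProLink-tagged EP2 and EA-fused β-arrestin 2 (enzyme fragment complementation) were seeded 24 h, pre-incubated with compound 15 min at 37 °C, then stimulated with 5 μM PGE2 (final) for 120 min.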
Chain of PTGER2 (EP2) (P43116 whole entry, the tested form may be a part): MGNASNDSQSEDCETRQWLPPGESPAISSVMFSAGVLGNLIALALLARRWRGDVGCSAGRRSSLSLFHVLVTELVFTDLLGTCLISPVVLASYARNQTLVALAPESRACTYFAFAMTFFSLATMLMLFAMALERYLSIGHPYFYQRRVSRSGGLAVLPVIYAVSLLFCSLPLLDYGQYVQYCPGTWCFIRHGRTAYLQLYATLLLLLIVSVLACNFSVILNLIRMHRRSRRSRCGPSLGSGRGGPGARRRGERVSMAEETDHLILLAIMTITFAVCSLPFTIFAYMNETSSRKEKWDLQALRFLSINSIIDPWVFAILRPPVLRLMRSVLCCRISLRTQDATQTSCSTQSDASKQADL

The target in a further assay is PTRGER4 (EP4) (Homo sapiens (Human), UniProt P35408). The assay can be described thus: hEP4 b-arrestin assay (PathHunter HEK 293 PTGER4 b-arrestin cells). The class given is cell-based. The gist of the method:
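Stably transfected HEK293 cells carrying EP4–ProLink and β-arrestin 2–EA (β-gal fragment complementation), pre-incubated with compound 15 min at 37 °C, then stimulated with PGE2 (20 nM final) for 120 min at 37 °C. Chemiluminescence read after 1 h detection reagent at room temperature; activity per concentration expressed as percent of DMSO control.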

[1] abbreviates: antagonistic activity on hEP2, mean where measured multiple times.
Setting [2] is: antagonistic activity on hEP4, mean where measured multiple times.
The mark [3] stands for this setting: hEP2 b-arrestin assay (values without asterisk).
Setting [4] is: hEP4 b-arrestin assay (values without asterisk).

Chain of PTRGER4 (EP4) (P35408 whole entry, looked up, the tested form may be a part): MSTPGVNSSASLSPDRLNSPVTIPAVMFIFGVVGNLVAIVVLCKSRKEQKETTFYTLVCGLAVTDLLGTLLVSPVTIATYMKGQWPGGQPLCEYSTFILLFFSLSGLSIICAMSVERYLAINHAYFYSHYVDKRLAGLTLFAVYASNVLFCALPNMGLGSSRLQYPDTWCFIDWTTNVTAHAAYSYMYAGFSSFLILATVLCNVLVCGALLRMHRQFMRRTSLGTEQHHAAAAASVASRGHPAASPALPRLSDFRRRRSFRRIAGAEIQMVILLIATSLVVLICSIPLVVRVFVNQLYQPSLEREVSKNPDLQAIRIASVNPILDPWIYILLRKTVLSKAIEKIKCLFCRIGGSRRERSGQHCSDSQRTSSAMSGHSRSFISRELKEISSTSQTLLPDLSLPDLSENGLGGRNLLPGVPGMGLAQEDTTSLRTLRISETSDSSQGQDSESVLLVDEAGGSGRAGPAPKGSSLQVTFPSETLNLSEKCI

As for `Cc1cc(F)cc2c1cc(C)n2CCNc1cc(-c2ccc3cc[nH]c3c2)ncn1` [compound 10, [2-(6-Fluoro-2,4-dimethyl-indol-1-yl)-ethyl]-[6-(1H-indol-6-yl)-pyrimidin-4-yl]-amine], the concentration for half-maximal inhibition (IC50) against PTGER2 (EP2) (setting [1]) is 69 nM; against PTRGER4 (EP4) (setting [2]), 691 nM.

Take `COc1ccc(F)c2c1cc(C)n2CCNc1cc(-c2ccc3c(c2)CNC3=O)ncn1` [compound 90, 5-{6-[2-(7-Fluoro-4-methoxy-2-methyl-indol-1-yl)-ethylamino]-pyrimidin-4-yl}-2,3-dihydro-isoindol-1-one]: the IC50 on PTGER2 (EP2) (setting [1]) was 7 nM; on PTRGER4 (EP4) (setting [2]) it was 461 nM.

Consider `COc1ccc(F)c2c1cc(C#N)n2CCNc1cc(-c2ccc3c(c2)CCNC3=O)ncn1` [Example 990, 7-Fluoro-4-methoxy-1-{2-[6-(1-oxo-1,2,3,4-tetrahydro-isoquinolin-6-yl)-pyrimidin-4-ylamino]-ethyl}-1H-indole-2-carbonitrile], for which the IC50 worked out at 3 nM on PTGER2 (EP2) (setting [3]) and 19 nM at PTRGER4 (EP4) (setting [4]).

`COc1ccc(F)c2c1cc(C)n2CCNc1cc(-c2ccc(-c3ncc[nH]3)cc2)ncn1` [compound 192, [2-(7-Fluoro-4-methoxy-2-methyl-indol-1-yl)-ethyl]-{6-[4-(1H-imidazol-2-yl)-phenyl]-pyrimidin-4-yl}-amine]: the IC50 at PTGER2 (EP2) (setting [1]) amounted to 23 nM; on PTRGER4 (EP4) (setting [2]), 287 nM.

In the case of `COc1cc(-c2cc(NCCn3c(C)cc4c(OC)ccc(F)c43)ncn2)ccc1CC(=O)O` [Example 886, (4-{6-[2-(7-Fluoro-4-methoxy-2-methyl-indol-1-yl)-ethylamino]-pyrimidin-4-yl}-2-methoxy-phenyl)-acetic acid], the concentration for half-maximal inhibition (IC50) turned out to be 42 nM against PTGER2 (EP2) (setting [3]) and 125 nM against PTRGER4 (EP4) (setting [4]).

With `CCOc1cc(-c2cc(NCCn3c(C)cc4ccc(Cl)c(Cl)c43)ncn2)sc1C(=O)O` [compound 236], the values for the IC50 against PTGER2 (EP2) (setting [1]) and against PTRGER4 (EP4) (setting [2]) were 9 nM and 413 nM, respectively.

`COc1ccc(F)c2c1cc(C#N)n2CCNc1cc(-c2ccc(-c3ncn(C)c3C)cc2)ncn1` [Example 823, 1-(2-{6-[4-(1,5-Dimethyl-1H-imidazol-4-yl)-phenyl]-pyrimidin-4-ylamino}-ethyl)-7-fluoro-4-methoxy-1H-indole-2-carbonitrile]: the IC50 on PTGER2 (EP2) (setting [3]) and against PTRGER4 (EP4) (setting [4]) was 5 nM throughout.

Consider `COC(=O)Nc1ccc(-c2cc(NCCn3c(C)cc4c(OC)ccc(F)c43)ncn2)cc1` [Example 1041, (4-{6-[2-(7-Fluoro-4-methoxy-2-methyl-indol-1-yl)-ethylamino]-pyrimidin-4-yl}-phenyl)-carbamic acid methyl ester], for which the half-inhibitory concentration (IC50) worked out at 26 nM against PTGER2 (EP2) (setting [3]) and 246 nM against PTRGER4 (EP4) (setting [4]).

With `CCOc1cc(-c2cc(NCCn3c(C)cc4c(OC)cc(F)cc43)ncn2)ccc1NCC(=O)O` [Example 882, (2-Ethoxy-4-{6-[2-(6-fluoro-4-methoxy-2-methyl-indol-1-yl)-ethylamino]-pyrimidin-4-yl}-phenylamino)-acetic acid], the figures for the half-inhibitory concentration (IC50) against PTGER2 (EP2) (setting [3]) and at PTRGER4 (EP4) (setting [4]) were 11 nM and 55 nM, respectively.

Consider `COc1cccc2c1cc(C)n2CCNc1cc(-c2cc(Cl)c(C(=O)O)s2)ncn1` [compound 23, 3-Chloro-5-{6-[2-(4-methoxy-2-methyl-indol-1-yl)-ethylamino]-pyrimidin-4-yl}-thiophene-2-carboxylic acid], for which the figures for the concentration for half-maximal inhibition (IC50) on PTGER2 (EP2) (setting [1]) and at PTRGER4 (EP4) (setting [2]) were 3 nM and 143 nM, respectively.

Turning to `CCCCOc1cc(-c2cc(NCCn3c(C)cc4c(OC)cc(Cl)c(F)c43)ncn2)ccc1C(=O)O` [Example 884, 2-Butoxy-4-{6-[2-(6-chloro-7-fluoro-4-methoxy-2-methyl-indol-1-yl)-ethylamino]-pyrimidin-4-yl}benzoic acid], the 50% inhibitory concentration (IC50) against PTGER2 (EP2) (setting [3]) worked out at 10 nM; at PTRGER4 (EP4) (setting [4]), 84 nM.

Regarding `CNc1cc(-c2cc(NCCn3c(C#N)cc4c(OC)ccc(F)c43)ncn2)ccc1C(=O)O` [Example 1010, 4-{6-[2-(2-Cyano-7-fluoro-4-methoxy-indol-1-yl)-ethylamino]-pyrimidin-4-yl}-2-methylamino-benzoic acid], the concentration for half-maximal inhibition (IC50) on PTGER2 (EP2) (setting [3]) turned out to be 3 nM; on PTRGER4 (EP4) (setting [4]), 7 nM.

As to `Cc1cc2ccccc2n1CCNc1cc(-c2cc(Cl)c(C(=O)O)s2)ncn1` [compound 5], the IC50 is 5 nM against PTGER2 (EP2) (setting [1]) and 629 nM against PTRGER4 (EP4) (setting [2]).

For the compound `COc1ccc(F)c2c1cc(C)n2CCNc1cc(-c2cc(C)c(C(=O)O)c(F)c2)ncn1` [compound 277], the IC50 against PTGER2 (EP2) (setting [1]) is 17 nM; at PTRGER4 (EP4) (setting [2]), 416 nM.

Turning to `COc1ccc(F)c2c1cc(C)n2CCNc1cc(-c2ccc(S(=O)(=O)O)cc2)ncn1` [compound 116, 4-{6-[2-(7-Fluoro-4-methoxy-2-methyl-indol-1-yl)-ethylamino]-pyrimidin-4-yl}-benzenesulfonic acid], the IC50 at PTGER2 (EP2) (setting [1]) was determined as 19 nM; against PTRGER4 (EP4) (setting [2]), 382 nM.

For the compound `COc1ccc(F)c2c1cc(C#N)n2CCNc1cc(-c2ccc(-c3c[nH]c(C4CC4)n3)cc2)ncn1` [Example 863, 1-(2-{6-[4-(2-Cyclopropyl-1H-imidazol-4-yl)-phenyl]-pyrimidin-4-ylamino}-ethyl)-7-fluoro-4-methoxy-1H-indole-2-carbonitrile], the half-inhibitory concentration (IC50) at PTGER2 (EP2) (setting [3]) is 5 nM; on PTRGER4 (EP4) (setting [4]) it was 3 nM.

As for `CCCc1cc(-c2cc(NCCn3c(C)cc4cc(C)cc(Cl)c43)ncn2)ccc1C(=O)O` [compound 266], the half-maximal inhibitory concentration (IC50) against PTGER2 (EP2) (setting [1]) was 53 nM; against PTRGER4 (EP4) (setting [2]), 953 nM.

For the compound `CCOc1cc(-c2cc(NCCn3c(C#N)cc4c(OC)ccc(F)c43)ncn2)sc1C(=O)NCCO` [Example 1026, 5-{6-[2-(2-Cyano-7-fluoro-4-methoxy-indol-1-yl)-ethylamino]-pyrimidin-4-yl}-3-ethoxy-thiophene-2-carboxylic acid (2-hydroxy-ethyl)-amide], the IC50 against PTGER2 (EP2) (setting [3]) is 21 nM; against PTRGER4 (EP4) (setting [4]) it was 1 nM.

For the compound `CCOc1cc(-c2cc(NCCn3c(C#N)cc4c(Cl)cccc43)ncn2)sc1C(=O)O` [Example 909, 5-{6-[2-(4-Chloro-2-cyano-indol-1-yl)-ethylamino]-pyrimidin-4-yl}-3-ethoxy-thiophene-2-carboxylic acid], the IC50 is 3 nM against PTGER2 (EP2) (setting [3]) and 14 nM against PTRGER4 (EP4) (setting [4]).

As for `N#Cc1cc2c(Cl)cccc2n1CCNc1cc(-c2cc(C(F)(F)F)c(C(=O)O)s2)ncn1` [Example 911, 5-{6-[2-(4-Chloro-2-cyano-indol-1-yl)-ethylamino]-pyrimidin-4-yl}-3-trifluoromethyl-thiophene-2-carboxylic acid], the IC50 against PTGER2 (EP2) (setting [3]) was determined as 7 nM; against PTRGER4 (EP4) (setting [4]) it was 27 nM.

`CCCCOc1cc(-c2cc(NCCn3c(C#N)cc4c(OC)ccc(F)c43)ncn2)ccc1C(=O)O` [Example 872, 2-Butoxy-4-{6-[2-(2-cyano-7-fluoro-4-methoxy-indol-1-yl)-ethylamino]-pyrimidin-4-yl}-benzoic acid]: the IC50 amounted to 12 nM against PTGER2 (EP2) (setting [3]) and 18 nM on PTRGER4 (EP4) (setting [4]).

Regarding `COc1ccc(F)c2c1cc(C#N)n2CCNc1cc(-c2ccc(C(=O)O)c(CC(C)C)c2)ncn1` [Example 946, 4-{6-[2-(2-Cyano-7-fluoro-4-methoxy-indol-1-yl)-ethylamino]-pyrimidin-4-yl}-2-isobutyl-benzoic acid], the half-maximal inhibitory concentration (IC50) against PTGER2 (EP2) (setting [3]) came to 54 nM; against PTRGER4 (EP4) (setting [4]) it was 10 nM.

`CCCc1cc(-c2cc(NCCn3c(C)cc4c(F)ccc(Cl)c43)ncn2)cc(Cl)c1C(=O)O` [compound 342, 2-Chloro-4-{6-[2-(7-chloro-4-fluoro-2-methyl-indol-1-yl)-ethylamino]-pyrimidin-4-yl}-6-propyl-benzoic acid]: the values for the IC50 at PTGER2 (EP2) (setting [1]) and against PTRGER4 (EP4) (setting [2]) were 5 nM and 621 nM, respectively.
